From ChEMBL document CHEMBL4043136, “Chiral-pool synthesis of 1,2,4-trisubstituted 1,4-diazepanes as novel σ1 receptor ligands” (Bioorg Med Chem, 2017)
The source made the active and inactive calls. The rule behind the calls is not given here.

What was measured:
[1] = target: Neuromedin-B receptor (Homo sapiens) (UniProt P28336); experiment: Displacement of [125I]-(Tyr4)-bombesin from bombesin BB1 receptor (unknown origin) at 1 uM
[2] = target: Gastrin-releasing peptide receptor (Homo sapiens) (UniProt P30550); experiment: Displacement of [125I]-(Tyr4)-bombesin from bombesin BB2 receptor (unknown origin) at 1 uM
[3] = Displacement of [3H]-(+)-MK 801 from PCP binding site of NMDA receptor in pig brain cortex membranes after 120 mins by liquid scintillation spectrometry; assay type: cell membranes, Sus scrofa
[4] = Metabolic stability in mouse microsomes assessed as amount of parent compound remaining after 5 mins; assay type: ADME, Microsome; conditions: read-out: Stability
[5] = target: CYP2C19 (Homo sapiens, UniProt P33261); experiment: Inhibition on CYP2C19 (unknown origin) at 1 uM; assay type: ADME
[6] = target: CYP2D6 (Homo sapiens, UniProt P10635); experiment: Inhibition on CYP2D6 (unknown origin) at 1 uM; assay type: ADME
[7] = target: Alpha-2A adrenergic receptor (Homo sapiens) (UniProt P08913); experiment: Displacement of [3H]-MK-912 from adrenergic alpha2A receptor (unknown origin) at 1 uM
[8] = target: Beta-1 adrenergic receptor (Homo sapiens) (UniProt P08588); experiment: Displacement of [125I]-cyanopindolol from adrenergic beta1 receptor (unknown origin) at 1 uM
[9] = target: B1 bradykinin receptor (Homo sapiens) (UniProt P46663); experiment: Displacement of [3H]-(Des-Arg10)-Kallidin from bradykinin B1 receptor (unknown origin) at 1 uM
[10] = target: B2 bradykinin receptor (Homo sapiens) (UniProt P30411); experiment: Displacement of [3H]-bradykinin from bradykinin B2 receptor (unknown origin) at 1 uM
[11] = target: C-C chemokine receptor type 4 (Homo sapiens) (UniProt P51679); experiment: Displacement of [125I]-TARC from CCR4 receptor (unknown origin) at 1 uM
[12] = target: C-X-C chemokine receptor type 2 (Homo sapiens) (UniProt P25025); experiment: Displacement of [125I]-IL-8 from CXCR2 receptor (unknown origin) at 1 uM
[13] = target: D(1A) dopamine receptor (Homo sapiens) (UniProt P21728); experiment: Displacement of [3H]-SCH-23390 from dopamine D1 receptor (unknown origin) at 1 uM
[14] = target: D(3) dopamine receptor (Homo sapiens) (UniProt P35462); experiment: Displacement of [3H]-sp iperone from dopamine D3 receptor (unknown origin) at 1 uM
[15] = target: Endothelin-1 receptor (Homo sapiens) (UniProt P25101); experiment: Displacement of [125I]-endothelin-1 from endothelin ETA receptor (unknown origin) at 1 uM
[16] = target: Epidermal growth factor receptor (Homo sapiens) (UniProt P00533); experiment: Displacement of [125I]-EGF from EGF receptor (unknown origin) at 1 uM
[17] = target: Estrogen receptor (Homo sapiens) (UniProt P03372); experiment: Displacement of [3H]-estradiol from estrogen ERalpha receptor (unknown origin) at 1 uM
[18] = species: Homo sapiens; experiment: Displacement of [3H]-muscimol from […] GABAA receptor (unknown origin) at 1 uM
[19] = species: Homo sapiens; experiment: Displacement of [3H]-flunitrazepam from […] GABAA receptor (unknown origin) at 1 uM
[20] = species: Homo sapiens; experiment: Displacement of [3H]-CGP-54626 from […] GABAB receptor (unknown origin) at 1 uM
[21] = species: Homo sapiens; experiment: Displacement of [3H]-CGP-39653 from glutamate […] receptor (unknown origin) at 1 uM
[22] = target: Glutamate [NMDA] receptor (Homo sapiens) (UniProt Q05586+Q12879+Q13224+O15399+O60391+Q14957+Q8TCU5); experiment: Displacement of [3H]-MDL-105519 from glutamate NMDA receptor glycine binding site (unknown origin) at 1 uM
[23] = target: Metabotropic glutamate receptor 5 (Homo sapiens) (UniProt P41594); experiment: Displacement of [3H]-quisqulic acid from metabotropic glutamate receptor 5 (unknown origin) at 1 uM
[24] = target: Histamine H1 receptor (Homo sapiens) (UniProt P35367); experiment: Displacement of [3H]-Pyrilamine from histamine H1 receptor (unknown origin) at 1 uM
[25] = target: Melanocortin receptor 3 (Homo sapiens) (UniProt P41968); experiment: Displacement of [125I]-NDP-alpha-MSH from melanocortin MC3 receptor (unknown origin) at 1 uM
[26] = target: Muscarinic acetylcholine receptor M1 (Homo sapiens) (UniProt P11229); experiment: Displacement of [3H]-N-methylscopolamine from muscarinic M1 receptor (unknown origin) at 1 uM
[27] = target: Muscarinic acetylcholine receptor M2 (Homo sapiens) (UniProt P08172); experiment: Displacement of [3H]-N-methylscopolamine from muscarinic M2 receptor (unknown origin) at 1 uM
[28] = target: Neuropeptide Y receptor type 2 (Homo sapiens) (UniProt P49146); experiment: Displacement of [125I]-Peptide YY from neuropeptide Y Y2 receptor (unknown origin) at 1 uM
[29] = species: Homo sapiens; experiment: Displacement of [125I]-epibatidine from nicotinic acetylcholine receptor (unknown origin) at 1 uM
[30] = target: Delta-type opioid receptor (Homo sapiens) (UniProt P41143); experiment: Displacement of [3H]-naltrindole from delta opioid receptor (unknown origin) at 1 uM
[31] = target: Mu-type opioid receptor (Homo sapiens) (UniProt P35372); experiment: Displacement of [3H]-d iprenorphine from mu opioid receptor (unknown origin) at 1 uM
[32] = target: Platelet-activating factor receptor (Homo sapiens) (UniProt P25105); experiment: Displacement of [3H]-PAF from platelet activating factor receptor (unknown origin) at 1 uM
[33] = test system: Mus musculus; experiment: Toxicity in mouse assessed as writhing at 100 mg/kg, ip by Irwin test; assay type: organism-based; conditions: in vivo
[34] = test system: Mus musculus; experiment: Toxicity in mouse at 1 mg/kg, ip by Irwin test; assay type: organism-based; conditions: in vivo
[35] = test system: Mus musculus; experiment: Cognition enhancing effect in mouse assessed as reversal of scopolamine-induced amnesia at 30 mg/kg, ip; assay type: functional, organism-based

D(1A) dopamine receptor (Homo sapiens), sequence (P21728 whole entry): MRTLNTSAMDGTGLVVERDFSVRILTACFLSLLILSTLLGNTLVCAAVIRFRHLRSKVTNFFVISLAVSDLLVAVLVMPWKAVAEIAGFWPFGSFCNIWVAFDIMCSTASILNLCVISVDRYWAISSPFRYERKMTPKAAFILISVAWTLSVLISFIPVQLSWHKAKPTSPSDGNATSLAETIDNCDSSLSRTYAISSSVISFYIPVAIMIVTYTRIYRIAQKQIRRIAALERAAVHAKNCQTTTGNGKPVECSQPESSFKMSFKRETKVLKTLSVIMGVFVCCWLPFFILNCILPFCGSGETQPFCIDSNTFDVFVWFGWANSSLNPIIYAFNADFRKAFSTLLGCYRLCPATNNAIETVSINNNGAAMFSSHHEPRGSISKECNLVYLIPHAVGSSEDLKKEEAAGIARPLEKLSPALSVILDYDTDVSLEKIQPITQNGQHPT
C-X-C chemokine receptor type 2 (Homo sapiens), sequence (P25025 whole entry): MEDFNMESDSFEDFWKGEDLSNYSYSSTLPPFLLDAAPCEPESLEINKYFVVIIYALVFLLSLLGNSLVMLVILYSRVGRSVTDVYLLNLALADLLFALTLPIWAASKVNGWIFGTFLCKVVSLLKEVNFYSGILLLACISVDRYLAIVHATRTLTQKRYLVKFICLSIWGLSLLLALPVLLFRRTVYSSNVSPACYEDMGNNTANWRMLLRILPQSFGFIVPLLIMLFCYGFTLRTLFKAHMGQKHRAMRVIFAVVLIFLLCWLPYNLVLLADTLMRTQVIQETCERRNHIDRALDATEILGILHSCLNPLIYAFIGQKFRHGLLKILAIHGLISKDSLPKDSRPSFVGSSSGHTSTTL
C-C chemokine receptor type 4 (Homo sapiens), sequence (P51679 whole entry): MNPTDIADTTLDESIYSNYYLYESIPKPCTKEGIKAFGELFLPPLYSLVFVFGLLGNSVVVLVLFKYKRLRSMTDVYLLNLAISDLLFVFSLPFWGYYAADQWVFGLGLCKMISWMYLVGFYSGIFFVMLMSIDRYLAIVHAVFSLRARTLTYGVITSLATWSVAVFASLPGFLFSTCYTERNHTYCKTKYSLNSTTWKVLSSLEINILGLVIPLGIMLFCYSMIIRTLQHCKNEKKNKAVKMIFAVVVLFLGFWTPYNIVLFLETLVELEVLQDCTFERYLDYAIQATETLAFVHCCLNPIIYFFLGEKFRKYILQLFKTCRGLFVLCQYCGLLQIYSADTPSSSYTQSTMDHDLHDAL
Neuropeptide Y receptor type 2 (Homo sapiens), sequence (P49146 whole entry): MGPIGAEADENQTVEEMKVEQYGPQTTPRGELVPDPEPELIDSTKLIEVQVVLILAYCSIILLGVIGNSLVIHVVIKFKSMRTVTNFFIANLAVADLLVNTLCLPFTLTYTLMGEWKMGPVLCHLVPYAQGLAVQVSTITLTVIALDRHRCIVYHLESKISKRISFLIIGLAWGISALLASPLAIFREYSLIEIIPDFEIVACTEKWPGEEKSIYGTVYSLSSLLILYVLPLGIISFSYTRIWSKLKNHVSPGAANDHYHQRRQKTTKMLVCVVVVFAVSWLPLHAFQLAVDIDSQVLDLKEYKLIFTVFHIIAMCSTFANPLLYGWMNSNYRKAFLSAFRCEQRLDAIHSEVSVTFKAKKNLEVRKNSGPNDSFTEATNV
Beta-1 adrenergic receptor (Homo sapiens), sequence (P08588 whole entry, looked up): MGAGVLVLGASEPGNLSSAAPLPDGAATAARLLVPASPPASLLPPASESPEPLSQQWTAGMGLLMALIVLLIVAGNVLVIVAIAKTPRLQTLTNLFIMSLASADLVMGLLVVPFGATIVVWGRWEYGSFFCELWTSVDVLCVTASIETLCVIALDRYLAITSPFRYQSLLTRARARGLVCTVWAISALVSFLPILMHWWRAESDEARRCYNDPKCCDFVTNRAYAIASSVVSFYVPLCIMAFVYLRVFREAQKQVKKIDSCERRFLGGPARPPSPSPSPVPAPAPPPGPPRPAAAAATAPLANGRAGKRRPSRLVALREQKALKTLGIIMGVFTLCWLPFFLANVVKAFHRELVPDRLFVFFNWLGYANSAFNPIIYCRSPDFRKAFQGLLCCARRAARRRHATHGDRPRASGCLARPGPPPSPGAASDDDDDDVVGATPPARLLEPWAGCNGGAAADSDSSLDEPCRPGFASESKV
Epidermal growth factor receptor (Homo sapiens), sequence (P00533 whole entry): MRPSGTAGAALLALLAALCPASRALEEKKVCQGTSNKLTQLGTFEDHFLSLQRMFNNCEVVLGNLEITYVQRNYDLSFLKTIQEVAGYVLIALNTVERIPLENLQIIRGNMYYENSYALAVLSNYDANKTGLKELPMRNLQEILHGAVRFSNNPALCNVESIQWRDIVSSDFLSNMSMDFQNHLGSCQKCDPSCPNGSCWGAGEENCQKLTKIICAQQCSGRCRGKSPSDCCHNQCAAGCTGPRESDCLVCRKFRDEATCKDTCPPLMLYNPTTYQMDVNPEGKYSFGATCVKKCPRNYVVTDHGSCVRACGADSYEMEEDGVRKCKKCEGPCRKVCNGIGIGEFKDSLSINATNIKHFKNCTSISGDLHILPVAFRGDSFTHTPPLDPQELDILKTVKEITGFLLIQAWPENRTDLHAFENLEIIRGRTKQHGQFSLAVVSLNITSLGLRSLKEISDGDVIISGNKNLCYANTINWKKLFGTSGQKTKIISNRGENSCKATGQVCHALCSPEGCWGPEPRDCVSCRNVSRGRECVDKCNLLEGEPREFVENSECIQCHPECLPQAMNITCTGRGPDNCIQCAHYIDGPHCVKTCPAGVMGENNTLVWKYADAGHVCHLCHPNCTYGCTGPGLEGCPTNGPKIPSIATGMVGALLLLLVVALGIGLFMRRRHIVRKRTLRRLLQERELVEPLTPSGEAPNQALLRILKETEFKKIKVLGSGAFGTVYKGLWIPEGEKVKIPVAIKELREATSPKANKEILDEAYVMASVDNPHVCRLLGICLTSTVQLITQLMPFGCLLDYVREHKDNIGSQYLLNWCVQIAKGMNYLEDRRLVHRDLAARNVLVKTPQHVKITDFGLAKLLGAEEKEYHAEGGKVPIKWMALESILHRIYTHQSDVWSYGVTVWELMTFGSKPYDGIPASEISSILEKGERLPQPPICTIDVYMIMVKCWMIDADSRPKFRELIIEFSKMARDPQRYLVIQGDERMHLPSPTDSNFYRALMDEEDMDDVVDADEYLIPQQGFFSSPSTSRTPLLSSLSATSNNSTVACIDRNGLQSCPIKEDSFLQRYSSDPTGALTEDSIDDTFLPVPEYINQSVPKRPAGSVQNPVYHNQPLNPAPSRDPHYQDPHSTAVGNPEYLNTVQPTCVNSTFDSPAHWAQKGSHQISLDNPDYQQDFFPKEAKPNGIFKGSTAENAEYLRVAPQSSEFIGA
Estrogen receptor (Homo sapiens), sequence (P03372 whole entry): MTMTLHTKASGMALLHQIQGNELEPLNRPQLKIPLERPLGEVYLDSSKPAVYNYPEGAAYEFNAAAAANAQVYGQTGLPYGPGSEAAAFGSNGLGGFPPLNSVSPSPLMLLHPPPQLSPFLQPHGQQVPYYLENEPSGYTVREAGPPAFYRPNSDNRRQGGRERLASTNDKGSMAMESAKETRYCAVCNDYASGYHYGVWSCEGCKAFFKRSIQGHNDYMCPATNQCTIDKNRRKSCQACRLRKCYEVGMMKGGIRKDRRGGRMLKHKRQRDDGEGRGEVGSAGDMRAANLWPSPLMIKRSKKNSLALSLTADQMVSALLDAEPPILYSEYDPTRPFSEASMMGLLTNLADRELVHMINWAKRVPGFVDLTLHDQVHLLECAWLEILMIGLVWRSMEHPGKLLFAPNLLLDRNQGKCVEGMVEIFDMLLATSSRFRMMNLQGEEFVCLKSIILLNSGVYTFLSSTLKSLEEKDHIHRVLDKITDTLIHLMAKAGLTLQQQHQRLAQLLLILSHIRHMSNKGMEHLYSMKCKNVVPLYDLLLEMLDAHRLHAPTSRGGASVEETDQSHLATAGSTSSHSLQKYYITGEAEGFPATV
Muscarinic acetylcholine receptor M2 (Homo sapiens), sequence (P08172 whole entry): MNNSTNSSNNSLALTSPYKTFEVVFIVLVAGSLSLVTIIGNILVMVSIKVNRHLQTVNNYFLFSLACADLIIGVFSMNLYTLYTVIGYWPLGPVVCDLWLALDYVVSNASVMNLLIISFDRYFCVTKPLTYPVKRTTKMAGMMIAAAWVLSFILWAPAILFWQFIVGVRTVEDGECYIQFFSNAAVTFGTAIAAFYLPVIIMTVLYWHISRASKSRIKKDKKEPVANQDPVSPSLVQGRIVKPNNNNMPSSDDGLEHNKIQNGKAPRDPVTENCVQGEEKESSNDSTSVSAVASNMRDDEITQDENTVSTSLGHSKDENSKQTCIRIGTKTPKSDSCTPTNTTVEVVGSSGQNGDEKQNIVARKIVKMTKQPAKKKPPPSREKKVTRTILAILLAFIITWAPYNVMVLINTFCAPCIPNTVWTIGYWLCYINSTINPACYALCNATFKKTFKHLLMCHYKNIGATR
Melanocortin receptor 3 (Homo sapiens), sequence (P41968 whole entry): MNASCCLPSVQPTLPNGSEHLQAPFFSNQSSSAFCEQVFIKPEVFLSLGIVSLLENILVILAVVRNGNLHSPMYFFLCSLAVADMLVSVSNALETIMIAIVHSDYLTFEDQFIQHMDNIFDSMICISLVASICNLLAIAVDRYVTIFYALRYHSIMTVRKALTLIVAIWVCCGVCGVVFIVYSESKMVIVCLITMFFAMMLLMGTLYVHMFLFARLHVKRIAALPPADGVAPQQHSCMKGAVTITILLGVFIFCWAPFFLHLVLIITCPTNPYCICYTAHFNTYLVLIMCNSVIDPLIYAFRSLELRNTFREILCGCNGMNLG
Delta-type opioid receptor (Homo sapiens), sequence (P41143 whole entry): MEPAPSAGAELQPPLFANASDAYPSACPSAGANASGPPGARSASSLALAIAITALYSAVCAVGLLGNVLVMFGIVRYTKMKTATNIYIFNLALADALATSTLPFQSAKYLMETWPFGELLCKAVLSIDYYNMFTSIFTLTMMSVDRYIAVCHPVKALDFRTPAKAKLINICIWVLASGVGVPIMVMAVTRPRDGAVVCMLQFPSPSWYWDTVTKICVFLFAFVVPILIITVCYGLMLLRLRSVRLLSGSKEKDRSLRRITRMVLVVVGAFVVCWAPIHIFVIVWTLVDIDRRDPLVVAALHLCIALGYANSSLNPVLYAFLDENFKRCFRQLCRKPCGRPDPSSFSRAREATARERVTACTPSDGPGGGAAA

Compound: COc1ccc(CN2CCCN(Cc3ccccc3)[C@@H](C)C2)cc1
- inhibition [1]: inactive
- inhibition [2]: inactive
- IC50 [3]: > 1 µM
- remaining at 5 min [4]: < 50%
- inhibition at 1 µM [5]: 38%
- inhibition at 1 µM [6]: 60%
- inhibition [7]: inactive
- inhibition [8]: inactive
- inhibition [9]: inactive
- inhibition [10]: inactive
- inhibition [11]: inactive
- inhibition [12]: inactive
- inhibition [13]: inactive
- inhibition [14]: inactive
- inhibition [15]: inactive
- inhibition [16]: inactive
- inhibition [17]: inactive
- inhibition [18]: inactive
- inhibition [19]: inactive
- inhibition [20]: inactive
- inhibition [21]: inactive
- inhibition [22]: inactive
- inhibition [23]: inactive
- inhibition [24]: inactive
- inhibition [25]: inactive
- inhibition [26]: inactive
- inhibition [27]: inactive
- inhibition [28]: inactive
- inhibition [29]: inactive
- inhibition [30]: inactive
- inhibition [31]: inactive
- inhibition [32]: inactive
- Activity [33]: Toxic
- Activity [34]: Non-Toxic
- Activity [35]: Active
